These results are taken from PMC11590367, “Characterization of novel small molecule inhibitors of estrogen receptor-activation function 2 (ER-AF2)” (Breast Cancer Research : BCR, 2024).

SMILES strings stand for the structures. Entries after “also recorded” stand apart in the source; their conditions may differ.

What all share (format): cell-based
One assay deals with T47D cells. Description: PrestoBlue viability assay, T47D. Particulars: 1 nM E2, 72 h treatment, ± SD of 3 biological replicates. The method, then:
(§1) T47D, MCF7, TamR3, and MDA-MB-231 cells were starved for 72 h and then seeded into black clear-bottom 96-well plates (Corning Life Sciences Cat#3904) at 20,000 cells/well (T47D, MCF7, TamR3) or 5,000 cells/well (MDA-MB-231). […] 20 µl of PrestoBlue Cell Viability Reagent (Thermo Fisher A13262) was added to each well and incubated at 37 °C for 1 h. Fluorescence intensity was measured using the TECAN F500 plate reader with emission and excitation wavelengths of […], respectively.

The test system of a further assay is MDA-MB-231 cells. Description: PrestoBlue viability assay, MDA-MB-231. Particulars: dose response 50 to 0.01 µM, 1 nM E2. The method, then: as §1
A further assay deals with TamR3 spheroids. The experiment in a line: Viability assay in 3D spheroids, TamR3. Particulars: 1:2 dilution from 50 µM, 1 nM E2; read-out: IC50 on growth (area) of TamR3 spheroids.
In assay [1] the test system is ER target genes (cyclinD1, CDC2, E2F, PR, pS2) in MCF7 cells. The experiment in a line: Real-time PCR of ER target genes, MCF7. The conditions noted are these: 10 µM, 72 h, E2 stimulation. The method, then: Total RNA was extracted using TRIzol, 72 h post-treatment. cDNA synthesis was conducted using the Maxima First Strand cDNA Synthesis Kit for RT-qPCR (Thermo K1641) according to the manufacturer’s protocol. RT-PCR was conducted on the QuantStudio 7 Pro instrument and expression fold change was calculated using 2−ΔΔCt method normalized to 18s.

Assay [2] concerns the target T1, GR (ARR3tk-luc) in PC3 cells (Homo sapiens, UniProt P04150).
T1 construct: expressed in transfected cells; host or cells: PC3 cells
Description: Nuclear receptor luciferase transcriptional assay, GR. Particulars: 1 or 5 µM, 1 nM Dexamethasone. Here is the method:
PC3 cells (androgen receptor (AR)-, glucocorticoid receptor (GR)[…], progesterone receptor (PR)-, ER-) were starved for 72 h then seeded into a 96-well plate at a density of 5,000 cells/well. 24 h later, cells were transfected with either ER, AR, GR, or PR and a luciferase plasmid (ERE-luc for ER and ARR3tk-luc for AR, GR, and PR). 24 h post-transfection, cells were simultaneously stimulated with 1 nM E2 for ER, 0.1 nM R1881 for AR, 1 nM Dexamethasone for GR, or 1 nM Levonorgestrel for PR, and treated with 1 or 5 µM of VPC-260724 24 h post-treatment, cells were lysed with 50 µl of passive lysis buffer (Promega #E1910). 20 µl of lysate was transferred to a white flat-bottom 96-well plate (Corning Life Sciences Cat#3912). Luminescence readings were obtained using the TECAN M200 Pro plate reader following the addition of 50 µl of luciferase reagent (Promega Luciferase Assay System E1500).

T1 sequence (P04150 whole entry): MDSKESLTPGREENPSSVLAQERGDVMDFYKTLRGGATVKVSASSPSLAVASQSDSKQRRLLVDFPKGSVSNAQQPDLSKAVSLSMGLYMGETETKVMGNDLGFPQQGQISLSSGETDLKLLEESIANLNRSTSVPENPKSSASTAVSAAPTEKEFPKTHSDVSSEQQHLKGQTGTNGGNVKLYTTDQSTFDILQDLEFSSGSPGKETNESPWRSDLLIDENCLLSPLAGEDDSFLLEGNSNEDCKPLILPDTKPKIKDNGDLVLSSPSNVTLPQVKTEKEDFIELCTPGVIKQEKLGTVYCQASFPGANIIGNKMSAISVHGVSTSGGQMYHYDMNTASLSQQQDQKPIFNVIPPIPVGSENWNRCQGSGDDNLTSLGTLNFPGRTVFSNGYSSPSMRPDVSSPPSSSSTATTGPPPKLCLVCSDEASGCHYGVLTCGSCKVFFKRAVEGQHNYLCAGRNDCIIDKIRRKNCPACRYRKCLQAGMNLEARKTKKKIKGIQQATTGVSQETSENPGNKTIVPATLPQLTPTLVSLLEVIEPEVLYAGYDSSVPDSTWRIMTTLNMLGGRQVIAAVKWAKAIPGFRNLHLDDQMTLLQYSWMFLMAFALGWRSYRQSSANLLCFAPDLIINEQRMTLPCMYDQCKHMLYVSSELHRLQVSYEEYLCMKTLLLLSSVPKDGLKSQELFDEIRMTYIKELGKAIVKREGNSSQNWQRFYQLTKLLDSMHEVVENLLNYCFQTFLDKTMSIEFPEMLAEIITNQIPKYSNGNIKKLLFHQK

With `Cc1cccn2c(CNCc3cccc(N(C)C)n3)cnc12` [VPC-260724], the half-maximal inhibitory concentration (IC50) in the assay on T47D cells amounted to 7.42 ± 2.12 µM; with T47D cells (Homo sapiens, T47D, 72 h), 7.4 µM; in the assay on TamR3 spheroids, 27 ± 3.2 µM. For the same compound, the “Effect on viability of ER-negative MDA-MB-231 cells” value in the assay on MDA-MB-231 cells was “minimal impact; also recorded: did not affect the viability”. Further, the “mRNA levels of ER target genes, MCF7” value in assay [1] is “significant decrease”. In addition, in assay [2], the “Transcriptional activity of GR” value is recorded as “did not significantly impact”.
